This test concerns the target T1, human acetyl-CoA carboxylase 2 (ACC2) (Homo sapiens, UniProt O00763).
T1 construct: The cDNA encoding amino acids 144 to 2458 of human acetyl-CoA carboxylase 2; made in house; host or cells: Sf9 insect cells (baculovirus, pFastBac1)
The test can be described thus: Acetyl-CoA carboxylase enzyme assay (malonyl-CoA formation by LC/MS/MS). Type of test: biochemical. To be noted: recombinant human ACC2 (aa 144-2458); read-out: IC50 ACC2. The gist of the method: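 Malonyl-CoA formation was read by LC/MS/MS MRM against a [13C3]-malonyl-CoA internal standard, after acetic acid quench. The enzyme was baculovirus/Sf9-expressed human ACC2 residues 144–2458, given 15 minutes room-temperature compound preincubation in HEPES pH 7.5 buffer with MgCl2, citrate and DTT. Substrate solution held 50 μM acetyl-CoA, 120 μM ATP and 2 mM KHCO3.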
T1 sequence (O00763 144-2458): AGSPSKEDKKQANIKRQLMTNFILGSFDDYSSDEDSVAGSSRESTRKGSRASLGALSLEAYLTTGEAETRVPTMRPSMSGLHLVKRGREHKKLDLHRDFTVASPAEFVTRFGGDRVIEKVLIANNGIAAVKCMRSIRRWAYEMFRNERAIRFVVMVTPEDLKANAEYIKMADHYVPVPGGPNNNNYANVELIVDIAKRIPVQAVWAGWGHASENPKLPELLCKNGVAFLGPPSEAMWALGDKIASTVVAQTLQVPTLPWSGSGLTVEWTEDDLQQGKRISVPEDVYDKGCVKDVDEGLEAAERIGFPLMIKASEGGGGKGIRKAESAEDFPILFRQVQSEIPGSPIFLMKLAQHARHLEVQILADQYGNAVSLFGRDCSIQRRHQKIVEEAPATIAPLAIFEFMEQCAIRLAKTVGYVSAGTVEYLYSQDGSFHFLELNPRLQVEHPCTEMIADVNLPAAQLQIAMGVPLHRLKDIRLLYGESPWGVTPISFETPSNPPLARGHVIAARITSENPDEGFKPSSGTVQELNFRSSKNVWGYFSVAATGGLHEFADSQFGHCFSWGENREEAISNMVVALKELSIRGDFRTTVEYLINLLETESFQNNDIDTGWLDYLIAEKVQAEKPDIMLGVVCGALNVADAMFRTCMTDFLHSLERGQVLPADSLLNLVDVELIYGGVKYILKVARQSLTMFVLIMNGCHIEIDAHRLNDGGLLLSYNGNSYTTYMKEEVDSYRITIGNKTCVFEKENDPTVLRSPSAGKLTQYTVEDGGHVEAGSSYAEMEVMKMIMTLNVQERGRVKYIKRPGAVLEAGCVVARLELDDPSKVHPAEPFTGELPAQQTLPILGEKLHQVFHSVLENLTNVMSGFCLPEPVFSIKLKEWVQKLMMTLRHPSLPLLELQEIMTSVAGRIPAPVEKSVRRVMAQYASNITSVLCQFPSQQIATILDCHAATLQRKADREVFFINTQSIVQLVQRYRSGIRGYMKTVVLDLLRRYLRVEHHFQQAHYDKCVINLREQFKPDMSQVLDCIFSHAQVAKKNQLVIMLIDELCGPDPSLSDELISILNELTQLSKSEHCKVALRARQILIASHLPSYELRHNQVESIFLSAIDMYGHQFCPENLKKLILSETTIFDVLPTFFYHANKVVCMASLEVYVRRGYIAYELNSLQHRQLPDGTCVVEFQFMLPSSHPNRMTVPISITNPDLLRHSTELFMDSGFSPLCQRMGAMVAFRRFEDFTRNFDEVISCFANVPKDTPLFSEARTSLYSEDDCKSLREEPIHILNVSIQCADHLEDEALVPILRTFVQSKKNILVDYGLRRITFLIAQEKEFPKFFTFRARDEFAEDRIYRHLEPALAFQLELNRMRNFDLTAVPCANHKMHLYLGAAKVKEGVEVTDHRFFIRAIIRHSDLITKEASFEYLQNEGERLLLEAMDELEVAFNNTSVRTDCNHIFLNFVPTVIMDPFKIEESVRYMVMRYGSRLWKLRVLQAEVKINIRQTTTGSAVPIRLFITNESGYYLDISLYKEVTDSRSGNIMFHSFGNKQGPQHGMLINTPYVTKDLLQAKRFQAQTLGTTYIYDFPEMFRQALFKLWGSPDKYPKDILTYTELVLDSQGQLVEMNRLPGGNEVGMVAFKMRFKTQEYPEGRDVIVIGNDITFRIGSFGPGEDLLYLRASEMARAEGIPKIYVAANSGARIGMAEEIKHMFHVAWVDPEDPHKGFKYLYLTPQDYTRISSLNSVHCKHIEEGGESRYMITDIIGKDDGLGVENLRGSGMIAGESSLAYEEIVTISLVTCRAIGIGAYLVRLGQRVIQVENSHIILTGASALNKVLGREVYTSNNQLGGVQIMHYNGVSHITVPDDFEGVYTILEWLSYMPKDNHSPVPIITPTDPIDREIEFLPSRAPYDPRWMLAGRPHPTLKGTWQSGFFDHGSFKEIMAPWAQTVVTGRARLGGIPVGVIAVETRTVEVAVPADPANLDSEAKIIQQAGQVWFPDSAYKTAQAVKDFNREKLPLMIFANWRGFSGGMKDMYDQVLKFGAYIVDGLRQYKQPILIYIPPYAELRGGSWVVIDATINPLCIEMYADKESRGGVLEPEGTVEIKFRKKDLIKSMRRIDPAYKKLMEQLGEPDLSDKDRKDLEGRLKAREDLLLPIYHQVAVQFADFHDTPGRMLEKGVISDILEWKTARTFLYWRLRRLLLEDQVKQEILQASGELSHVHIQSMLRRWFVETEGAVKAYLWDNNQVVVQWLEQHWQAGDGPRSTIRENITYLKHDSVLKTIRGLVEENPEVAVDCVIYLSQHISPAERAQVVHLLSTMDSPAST
In general, IC50 refers to the concentration that inhibits the measured activity by half. Regarding `C[C@@H](NC(=O)[C@H]1CC[C@H](NS(=O)(=O)c2ccc3c(c2)NC(=O)CO3)CC1)c1ccc(F)cc1` [Example 112, (1r,4R)-N-((R)-1-(4-fluorophenyl)ethyl)-4-(3-oxo-3,4-dihydro-2H-benzo[b][1,4]oxazine-6-sulfonamido)cyclohexanecarboxamide], the half-inhibitory concentration (IC50) was found to be 344 nM.

As to `C[C@@H](NC(=O)[C@H]1CC[C@H](NS(=O)(=O)c2ccc3ncsc3c2)CC1)c1ccc(F)cc1` [Example 113, (1r,4R)-4-(benzo[d]thiazole-6-surfonamido)-N-((R)-1-(4-fluorophenyl)ethyl)cyclohexanecarboxamide], the half-maximal inhibitory concentration (IC50) worked out at 212 nM.

With `C[C@@H](NC(=O)[C@H]1CC[C@H](NS(=O)(=O)c2ccc3[nH]c([C@@H]4CCCO4)nc3c2)CC1)c1ccc(F)cc1` [Example 114, (1r,4R)-N-((R)-1-(4-fluorophenyl)ethyl)-4-(2-((S)-tetrahydrofuran-2-yl)-1H-benzo[d]imidazole-5-sulfonamido)cyclohexanecarboxamide], the IC50 was found to be 296 nM.

For `C[C@@H](NC(=O)[C@H]1CC[C@H](NC(=O)c2ccc3cc(-c4ccccc4)[nH]c3c2)CC1)c1ccc(F)cc1` [Example 115, N-((1R,4r)-4-((R)-1-(4-fluorophenyl)ethylcarbamoyl)cyclohexyl)-2-phenyl-1H-indole-6-carboxamide], the IC50 was determined as 29100 nM.

As for `CC(C)[Si](C(C)C)(C(C)C)n1cc(Cl)c2ccc(S(=O)(=O)N[C@H]3CC[C@H](C(=O)N[C@H](C)c4ccc(F)cc4)CC3)cc21` [Example 116, (1r,4R)-4-(3-chloro-1-(triisopropylsilyl)-1H-indole-6-sulfonamido)-N-((R)-1-(4-fluorophenyl)ethyl)cyclohexanecarboxamide], the IC50 stood at 13 nM.

`C[C@@H](NC(=O)[C@H]1CC[C@H](NS(=O)(=O)c2ccc3[nH]c([C@H]4CCCO4)nc3c2)CC1)c1ccc(F)cc1` [Example 117, (1r,4R)-N-((R)-1-(4-fluorophenyl)ethyl)-4-(2-((R)-tetrahydrofuran-2-yl)-1H-benzo[d]imidazole-5-sulfonamido)cyclohexanecarboxamide]: the half-maximal inhibitory concentration (IC50) came to 574 nM.

Turning to `C[C@@H](NC(=O)[C@H]1CC[C@H](NS(=O)(=O)c2ccc3[nH]c([C@@H]4CC(F)(F)CN4)nc3c2)CC1)c1ccc(F)cc1` [Example 118, (1r,4R)-4-(2-((S)-4,4-difluoropyrrolidin-2-yl)-1H-benzo[d]imidazole-5-sulfonamido)-N-((R)-1-(4-fluorophenyl)ethyl)cyclohexanecarboxamide], the IC50 is 1750 nM.

Turning to `C[C@@H](NC(=O)[C@H]1CC[C@H](NS(=O)(=O)c2ccc3c(c2)CCC3)CC1)c1ccc(F)cc1` [Example 119, (1r,4R)-4-(2,3-dihydro-1H-indene-5-sulfonamido)-N-((R)-1-(4-fluorophenyl)ethyl)cyclohexanecarboxamide], the IC50 was 161 nM.

`C[C@@H](NC(=O)[C@H]1CC[C@H](NS(=O)(=O)c2ccc3nc(-c4ccccc4)sc3c2)CC1)c1ccc(F)cc1` [Example 120, (1r,4R)-N-((R)-1-(4-fluorophenyl)ethyl)-4-(2-phenylbenzo[d]thiazole-6-sulfonamido)cyclohexanecarboxamide]: the 50% inhibitory concentration (IC50) stood at 34 nM.

In the case of `C[C@@H](NC(=O)[C@H]1CC[C@H](NS(=O)(=O)c2ccc3[nH]c(-c4ccccc4)nc3c2)CC1)C1CCCCC1` [Example 121, (1r,4R)-N-((R)-1-cyclohexylethyl)-4-(2-phenyl-1H-benzo[d]imidazole-5-sulfonamido)cyclohexanecarboxamide], the half-maximal inhibitory concentration (IC50) is 17 nM.

As for `C[C@@H](NC(=O)[C@H]1CC[C@H](NS(=O)(=O)c2ccc3c(c2)OCCN3C)CC1)c1ccc(F)cc1` [Example 122, (1r,4R)-N-((R)-1-(4-fluorophenyl)ethyl)-4-(4-methyl-3,4-dihydro-2H-benzo[b][1,4]oxazine-7-sulfonamido)cyclohexanecarboxamide], the 50% inhibitory concentration (IC50) amounted to 16 nM.

On to `C[C@@H](NC(=O)[C@H]1CC[C@H](NS(=O)(=O)c2ccc3c(c2)OCCO3)CC1)c1ccc(F)cc1` [Example 123, (1r,4R)-4-(2,3-dihydrobenzo[b][1,4]dioxine-6-sulfonamido)-N-((R)-1-(4-fluorophenyl)ethyl)cyclohexanecarboxamide], for which the IC50 turned out to be 450 nM.

As for `Cc1c(Cl)[nH]c2ccc(S(=O)(=O)N[C@H]3CC[C@H](C(=O)N[C@H](C)c4ccc(F)cc4)CC3)cc12` [Example 124, (1r,4R)-4-(2-chloro-3-methyl-1H-indole-5-sulfonamido)-N-((R)-1-(4-fluorophenyl)ethyl)cyclohexanecarboxamide], the 50% inhibitory concentration (IC50) stood at 32 nM.

On to `C[C@@H]1CCCN1C(=O)[C@H]1CC[C@H](NS(=O)(=O)c2ccc3[nH]c(-c4ccccc4)nc3c2)CC1` [Example 125, N-((1R,4r)-4-((R)-2-methylpyrrolidine-1-carbonyl)cyclohexyl)-2-phenyl-1H-benzo[d]imidole-5-sulfonamide], for which the IC50 was found to be 58 nM.

Take `COCCn1c(-c2ccccc2)nc2cc(S(=O)(=O)N[C@H]3CC[C@H](C(=O)N[C@H](C)c4ccc(F)cc4)CC3)ccc21` [Example 126, (1r,4R)-N-((R)-1-(4-fluorophenyl)ethyl)-4-(1-(2-methoxyethyl)-2-phenyl-1H-benzo[d]imidazole-5-sulfonamido)cyclohexanecarboxamide]: the IC50 was found to be 71 nM.

For the compound `C[C@@H](NC(=O)[C@H]1CC[C@H](NS(=O)(=O)c2cnc3c(c2)OCCN3C)CC1)c1ccc(F)cc1` [Example 127, (1r-4R)-N-((R)-1-(4-fluorophenyl)ethyl)-4-(4-methyl-3,4-dihydro-2H-pyrido[3,2-b][1,4]oxazine-7-sulfonamido)cyclohexanecarboxamide], the IC50 amounted to 391 nM.

As for `C[C@@H](NC(=O)[C@H]1CC[C@H](NS(=O)(=O)c2cnc3c(c2)N(C)CCCN3C)CC1)c1ccc(F)cc1` [Example 128, (1r,4R)-4-(1,5-dimethyl-2,3,4,5-tetrahydro-1H-pyrido[2,3-b][1,4]diazepine-8-sulfonamido)-N-((R)-1-(4-fluorophenyl)ethyl)cyclohexanecarboxamide], the IC50 came to 146 nM.

For the compound `C[C@@H]1CCCN1C(=O)[C@H]1CC[C@H](NS(=O)(=O)c2cnc3c(c2)N(C)CCN3C)CC1` [Example 129, 1,4-dimethyl-N-((1R,4r)-4-((R)-2-methylpyrrolidine-1-carbonyl)cyclohexyl)-1,2,3,4-tetrahydropyrido[3,2-b]pyrazine-7-sulfonamide], the IC50 was found to be 10400 nM.

Regarding `C[C@@H](NC(=O)[C@H]1CC[C@H](NS(=O)(=O)c2cnc3c(c2)N(C)CCN3)CC1)c1ccc(F)cc1` [Example 130, (1r,4R)-N-((R)-1-(4-fluorophenyl)ethyl)-4-(1-methyl-1,2,3,4-tetrahydropyrido[3,2-b]pyrazine-7-sulfonamido)cyclohexanecarboxamide], the concentration for half-maximal inhibition (IC50) is 59 nM.

As to `C[C@@H](NC(=O)[C@H]1CC[C@H](NS(=O)(=O)c2cnc3c(c2)N(C)CCO3)CC1)c1ccc(F)cc1` [Example 131, (1r,4R)-N-((R)-1-(4-fluorophenyl)ethyl)-4-(1-methyl-2,3-dihydro-1H-pyrido[2,3-b][1,4]oxazine-7-sulfonamido)cyclohexanecarboxamide], the IC50 turned out to be 173 nM.

On to `C[C@@H](NC(=O)[C@H]1CC[C@H](NS(=O)(=O)c2cnc3c(c2)N(C2CC2)CCN3C)CC1)c1ccc(F)cc1` [Example 132, (1r,4R)-4-(1-cyclopropyl-4-methyl-1,2,3,4-tetrahydropyrido[3,2-b]pyrazine-7-surfonamido)-N-((R)-1-(4-fluorophenyl)ethyl)cyclohexanecarboxamide], for which the IC50 turned out to be 68 nM.

Regarding `C[C@@H](NC(=O)[C@H]1CC[C@H](NS(=O)(=O)c2ccc3c(c2)N(C)CCN3C)CC1)c1ccc(F)cc1` [Example 133, (1r,4R)-4-(1,4-dimethyl-1,2,3,4-tetrahydroquinoxaline-6-sulfonamido)-N-((R)-1-(4-fluorophenyl)ethyl)cyclohexanecarboxamide], the half-inhibitory concentration (IC50) amounted to 46 nM.

On to `C[C@@H](NC(=O)[C@H]1CC[C@H](NS(=O)(=O)c2cnc3c(c2)N(C)C2CCCCC2N3C)CC1)c1ccc(F)cc1` (stereo partly drawn) [Example 134, (1r,4R)-4-(5,10-dimethyl-5,5a,6,7,8,9,9a,10-octahydropyrido[3,2-b]quinoxaline-3-sulfonamido)-N((R)-1-(4-fluorophenyl)ethyl)cyclohexanecarboxamide], for which the 50% inhibitory concentration (IC50) came out at 28 nM.

Take `C[C@@H](NC(=O)[C@H]1CC[C@H](NS(=O)(=O)c2cnc3c(c2)N(CC(F)(F)F)CCN3C)CC1)c1ccc(F)cc1` [Example 135, (1r,4R)-N-((R)-1-(4-fluorophenyl)ethyl)-4-(4-methyl-1-(2,2,2-triffuoroethyl)-1,2,3,4-tetrahydropyrido[3,2-b]pyrazine-7-sulfonamido)cyclohexanecarboxamide]: the IC50 was determined as 157 nM.

With `Cc1ccccc1-c1cc2ccc(S(=O)(=O)N[C@H]3CC[C@H](C(=O)N4CCOCC4)CC3)cc2[nH]1` [Example 136, N-((1R,4r)-4-(morpholine-4-carbonyl)cyclohexyl)-2-o-tolyl-1H-indole-6-sulfonamide], the half-maximal inhibitory concentration (IC50) was determined as 187 nM.

`Cc1ccccc1-c1cc2ccc(S(=O)(=O)N[C@H]3CC[C@H](C(=O)N4CCC[C@H]4C)CC3)cc2[nH]1` [Example 137, N-((1R,4r)-4-((R)-2-methylpyrrolidine-1-carbonyl)cyclohexyl)-2-o-tolyl-1H-indole-6-sulfonamide]: the IC50 worked out at 162 nM.

Regarding `Cc1c[nH]c2ncc(S(=O)(=O)N[C@H]3CC[C@H](C(=O)N[C@H](C)c4ccc(F)cc4)CC3)cc12` [Example 138, (1r,4R)-N-((R)-1-(4-fluorophenyl)ethyl)-4-(3-methyl-1H-pyrrolo[2,3-b]pyridine-5-sulfonamido)cyclohexanecarboxamide], the IC50 came to 147 nM.

Source of the values: patent US8697739B2, “Bicyclic acetyl-CoA carboxylase inhibitors and uses thereof” (Novartis AG, priority 2010, dated 2014).
